{"source": "paper PMC8043927", "about": "“Mycelial culture extracts of selected wood-decay mushrooms as a source of skin-protecting factors” (Biotechnology Letters, 2021)", "biological_target": "T1, hyaluronidase", "T1 construct": "gene SPAM1; bovine testicular enzyme is the usual preparation", "assay": "turbidimetric assay with CTAB, […] nm", "format": "biochemical", "conditions": "hyaluronic acid substrate, acetate buffer pH 4.5, 37 °C, 45 min"}
{"smiles": "O=c1c(O)c(-c2ccc(O)c(O)c2)oc2cc(O)cc(O)c12", "note": "[quercetin (dihydrate)]", "values": [{"measurement": "Inhibition of hyaluronidase activity / Positive control", "value": 509.79, "unit": "µg/mL"}]}
